Experimental data from patent US20060120956A1, “Imaging agents comprising barbituric acid derivatives” (priority 2002, published 2006).
Read-outs that look alike come from different tables or passages of the source.

Assays:
MMP-9 [1] = target: T1, MMP-9 (Homo sapiens, UniProt P14780); test: Biomol MMP-9 colourimetric assay kit AK-410 (thiopeptolide substrate); type: biochemical
Procedure: (§1) Additional In Vitro Metalloproteinase Inhibition Assay
(§2) Compounds were screened using the following commercially available Biomol assay kits:
MMP-9 colourimetric assay kit—Catalogue number AK-410,
(§3) Which are available from Affiniti Research Products Ltd. (Palatine House, Matford Court, Exeter, EX2 8NL, UK).
(§4) (a) Test Compound Preparation.
(§5) Inhibitors were provided in powdered form, and stored at 4° C. For each inhibitor a 1 mM stock solution in DMSO was prepared, dispensed into 20 μl aliquots and these aliquots stored at −20° C. The stock solution was diluted to give 8 inhibitor concentrations (recommended: […], 5 μM, 500 nM, 50 nM, 5 nM, 500 pM, 50 pM and 5 pM). Dilutions were made in the kit assay buffer. A five-fold dilution of the inhibitor stocks is made on addition to the assay wells, therefore final concentration range is from 10 μM to 1 pM.
(§6) (b) Experimental Procedure.
(§7) Details are provided with the commercial kit, but can be summarised as follows:
(§8) Prepare test compound dilutions as above,
(§9) Add assay buffer to plate,
(§10) Add test compounds to plate
(§11) Prepare standard kit inhibitor NNGH (see kit for dilution factor)
(§12) Add NNGH to control inhibitor wells
(§13) Prepare MMP enzyme (see kit for dilution factor)
(§14) Incubate plate at 37° C. for ˜15 min
(§15) Prepare thiopeptolide substrate (see kit for dilution factor)
(§16) Count every 2 min for 1 hr, 37° C., 414 nm on a Labsystems iEMS plate reader.
Target sequence in this assay (P14780 107-444 limits assumed): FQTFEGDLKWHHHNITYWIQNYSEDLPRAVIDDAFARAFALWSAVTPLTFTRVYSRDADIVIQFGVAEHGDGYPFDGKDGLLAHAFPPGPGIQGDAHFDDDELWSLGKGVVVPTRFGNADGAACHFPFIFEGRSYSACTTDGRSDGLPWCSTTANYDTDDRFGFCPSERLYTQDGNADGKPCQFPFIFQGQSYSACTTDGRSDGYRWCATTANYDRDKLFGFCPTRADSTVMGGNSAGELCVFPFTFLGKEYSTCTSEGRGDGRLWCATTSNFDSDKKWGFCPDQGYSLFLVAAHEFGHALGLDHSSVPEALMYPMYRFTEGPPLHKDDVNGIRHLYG

MMP-2 [2] = target: MMP-2 (Homo sapiens, UniProt P08253); test: Biomol MMP-2 colourimetric assay kit AK-408 (thiopeptolide substrate); type: biochemical
Procedure: as §1, §2
MMP-2 colourimetric assay kit—Catalogue number AK-408,
as §3, §4, §5, §6, §7, §8, §9, §10, §11, §12, §13, §14, §15, §16

MMP-9 [3] = target: T1, MMP-9; test: In vitro metalloproteinase inhibition assay, fluorogenic substrate (method of Huang et al.); type: biochemical; details: fluorogenic substrate 1 μM, MMP 1 nM, inhibitor 1000 pM-100 μM
Text: In Vitro Metalloproteinase Inhibition Assay
Target sequence in this assay (P14780 94-707): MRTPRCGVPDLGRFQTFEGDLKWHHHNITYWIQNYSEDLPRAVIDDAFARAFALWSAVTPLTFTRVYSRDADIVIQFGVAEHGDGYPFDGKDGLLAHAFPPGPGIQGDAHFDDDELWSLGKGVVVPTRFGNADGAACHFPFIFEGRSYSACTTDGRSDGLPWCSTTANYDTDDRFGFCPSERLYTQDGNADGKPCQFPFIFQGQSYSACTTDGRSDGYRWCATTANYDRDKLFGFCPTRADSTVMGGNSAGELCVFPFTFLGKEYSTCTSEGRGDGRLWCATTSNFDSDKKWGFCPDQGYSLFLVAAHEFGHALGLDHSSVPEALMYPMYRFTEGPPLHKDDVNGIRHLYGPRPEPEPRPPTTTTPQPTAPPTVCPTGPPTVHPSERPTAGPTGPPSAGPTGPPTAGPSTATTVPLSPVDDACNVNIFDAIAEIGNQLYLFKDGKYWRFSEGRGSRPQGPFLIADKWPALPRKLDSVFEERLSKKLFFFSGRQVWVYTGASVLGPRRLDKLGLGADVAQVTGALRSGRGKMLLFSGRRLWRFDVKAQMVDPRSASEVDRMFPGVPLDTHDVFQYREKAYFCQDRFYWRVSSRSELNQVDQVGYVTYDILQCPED

MMP-2 [4] = target: T2, MMP-2 (Homo sapiens, UniProt P08253); details: read-out: MMP-2 IC50; fluorogenic substrate 1 μM, MMP 1 nM, inhibitor 1000 pM-100 μM
T2 sequence (P08253 110-660): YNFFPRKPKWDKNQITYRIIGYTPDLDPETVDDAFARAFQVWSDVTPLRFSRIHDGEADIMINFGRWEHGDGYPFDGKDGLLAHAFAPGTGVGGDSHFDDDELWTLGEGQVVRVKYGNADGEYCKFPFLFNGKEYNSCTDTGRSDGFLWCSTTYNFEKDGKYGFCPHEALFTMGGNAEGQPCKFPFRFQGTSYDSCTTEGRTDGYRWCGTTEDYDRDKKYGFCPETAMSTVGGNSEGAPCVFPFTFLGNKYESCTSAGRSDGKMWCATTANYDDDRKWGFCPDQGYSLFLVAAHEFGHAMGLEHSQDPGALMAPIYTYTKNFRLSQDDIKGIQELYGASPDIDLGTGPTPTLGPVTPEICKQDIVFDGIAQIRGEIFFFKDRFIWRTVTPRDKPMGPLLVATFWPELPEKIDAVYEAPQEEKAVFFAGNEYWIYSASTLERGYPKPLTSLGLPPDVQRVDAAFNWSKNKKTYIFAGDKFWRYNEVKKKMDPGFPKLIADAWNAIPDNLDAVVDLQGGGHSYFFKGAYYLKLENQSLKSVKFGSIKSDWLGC
Procedure: Thus, a constant concentration of the fluorogenic substrate (1 μM) and the respective MMPs (1 nM) were incubated with increasing amounts of the MMP-inhibitors (1000 pM-100 μM) to determine their IC50 values.

MMP-12 = MMP-12 (Homo sapiens, UniProt P39900); test: Biomol MMP-12 colourimetric assay kit AK-402 (thiopeptolide substrate); type: biochemical
Sequence of MMP-12 (P39900 106-268 limits assumed): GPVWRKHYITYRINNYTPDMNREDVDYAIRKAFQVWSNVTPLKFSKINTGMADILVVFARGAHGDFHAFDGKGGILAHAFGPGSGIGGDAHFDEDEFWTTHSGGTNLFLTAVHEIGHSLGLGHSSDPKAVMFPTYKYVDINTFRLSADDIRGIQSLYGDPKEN
Procedure: as §1, §2
MMP-12 colourimetric assay kit—Catalogue number AK-402,
as §3, §4, §5, §6, §7, §8, §9, §10, §11, §12, §13, §14, §15, §16

SMILES | Ki (MMP-9 [1]) | Ki (MMP-2 [2]) | IC50 (MMP-9 [3]) | IC50 (MMP-2 [4]) | also measured
O=C1NC(=O)C(c2ccc(Oc3ccc(Br)cc3)cc2)(N2CCN(CCCF)CC2)C(=O)N1 [Compound 7, 5-[4-(4-Bromophenoxy)phenyl]-5-[4-(3-fluoropropyl)-piperazin-1-yl)-pyrimidine-2,4,6-trione] | 2 nM | 11 nM |  |  | 
O=C1NC(=O)C(c2ccc(Oc3ccc(Br)cc3)cc2)(N2CCN(c3ccc(F)cc3)CC2)C(=O)N1 [Compound 20, 5-[4-(4-Bromo-phenoxy)phenyl]-5-[4-(4-fluorophenyl)piperazin-1-yl]-pyrimidine-2,4,6-trione] |  |  | 19 nM | 12 nM | 
CC(=NO)C(C)(C)NCCC(CCNC(=O)CCCC(=O)NCCN1CCN(C2(c3ccc(Oc4ccc(Br)cc4)cc3)C(=O)NC(=O)NC2=O)CC1)CCNC(C)(C)C(C)=NO (stereo not drawn) [Compound 17] | 10 nM | 29 nM |  |  | Ki (MMP-12; colourimetric kit, thiopeptolide substrate, 37° C., 414 nm, read-out: MMP-12 (Ki)): 157 nM
O=C1NC(=O)C(c2ccc(Oc3ccc(Br)cc3)cc2)(N2CCN(C(=O)CSCCCF)CC2)C(=O)N1 [Compound 9] | 0.3 nM | 5 nM |  |  | Ki (MMP-12): 11 nM
O=C1NC(=O)C(c2ccc(Oc3ccc(Br)cc3)cc2)(N2CCN(CCO)CC2)C(=O)N1 [Compound 2, 5-[4-(4-bromo-phenoxy)phenyl]-5-[4-(2-hydroxyethyl)piperazin-1-yl]-pyrimidine-2,4,6-trione, reference compound] |  |  | 4 nM | 9 nM | 
CC(=NO)C(C)(C)NCCC(CCNC(=O)CCN1CCN(C2(c3ccc(Oc4ccc(Br)cc4)cc3)C(=O)NC(=O)NC2=O)CC1)CCNC(C)(C)C(C)=NO (stereo not drawn) [Compound 16, 3-(4-{5-[4-(4-Bromophenoxy)-phenyl]-2,4,6-trioxohexahydropyrmidin-5-yl}-piperazin-1-yl)N-{5-(2-hydroxylimino-1,1-dimethylpropylamino)-3-[2-(2-hydroxylamino-1,1-dimethylpropylamino)-ethyl]-pentyl}-propionamide] | 3 nM | 14 nM |  |  | 
C[Si](C)(C)c1ccc(N2CCN(C3(c4ccc(Oc5ccc(Br)cc5)cc4)C(=O)NC(=O)NC3=O)CC2)cc1 |  |  |  |  | melting point: 205 to 210 °C
COc1ccc(Oc2ccc(C3(N4CCN(CCO)CC4)C(=O)NC(=O)NC3=O)cc2)cc1 [Compound 3, 5-[4-(2-hydroxyethyl)piperazin-1-yl]-5-[4 (4-methoxy-phenoxy)phenyl]-pyrimidine-2,4,6-trione, reference compound] |  |  | 6 nM | 9 nM | 
O=C1NC(=O)C(Nc2ccc(I)cc2)(c2ccc(Oc3ccc(Br)cc3)cc2)C(=O)N1 [Compound 24, 5-[4-(4-Bromophenoxy)-phenyl]-5-(4-iodophenylamino)-pyrimidine-2,4,6-trione] | 20 nM | 45 nM |  |  | 
O=C1NC(=O)C(c2ccc(Oc3ccc(I)cc3)cc2)(N2CCN(CCO)CC2)C(=O)N1 [Compound 4, 5-[4-(2-Hydroxyethyl)piperazin-1-yl]-5-[4-(4-iodo-phenoxy)phenyl]-pyrimidine-2,4,6-trione] |  |  | 2 nM | 7 nM | 
